These results are taken from patent US8999296B2, “Method of detecting bladder cancer” (Kochi University, priority 2008, dated 2015).

Assay [1] has as its system bladder cancer. As to the kind of experiment: Intraoperative photodynamic diagnosis of bladder cancer with ALA-HCl (video camera system and VLD-M1 fluorescence intensity), Example 1. The following applies: for Fluorescence intensity (relative intensity) by VLD-M1: irradiation at 405 nm, PpIX fluorescence at 635 nm, one subject. Format: in vivo, human. As for the experimental part: Intraoperative diagnosis using 5-aminolevulinic acid hydrochloride (ALA-HCl) was carried out for two subjects who are in the almost same progression stage of bladder cancer. The subjects were administered ALA-HCl respectively by bladder instillation and by oral intake. Bladder instillation was conducted on the day of operation by dissolving 1.5 g of ALA-HCl in 50 mL of a 8.4% sodium bicarbonate (sodium hydrogen carbonate: NaHCO3) to adjust pH (median pH of 8.0 (pH 7.8-8.2)), filtrating the dissolved ALA-HCl solution with a 0.22 μm filter, and then injecting this dissolved solution (50 mL) into the bladder of a subject. Retention time in the bladder was set for 120-150 min ([…]) and ALA was eliminated just prior to the operation. On the other hand, oral intake was carried out by dissolving ALA (maximum of 1 g) in 50 mL of a 5% dextrose solution to 20 mg/kg, and the ALA dissolved solution (50 mL) was orally administered to the other subject in the morning (4 hours before commencement of the operation) without giving breakfast. Diagnosis was conducted based on the diagnostic imaging and fluorescent intensity with the use of a video camera system: Endovision TELECAM SL/IPM-PPDSystem (KARL STORZ) and VLD-M1 (M&M). The video camera system was inserted via the urethra and the red light part was observed after irradiating a blue fluorescence at 380-440 nm. Further, VLD-M1 was inserted and fluorescence intensity (relative intensity) at the red light part was observed after irradiating a blue fluorescence at 405 nm.
In addition, at 635 nm which is the […] for protoporphyrin IX (PpIX), it was confirmed as shown in Table 1 that the fluorescence intensity was higher in the case of oral intake than in the case of bladder instillation.

Assay [2] deals with bladder cancer. As to the kind of experiment: Fluorescence diagnosis in bladder cancer patients grouped by disease stage (pTis, pTa, pT1, pT2, pT3), Example 2. The format is in vivo, human. The following applies: 50 bladder cancer patients, stages pTis, dosing as in Example 1. Here is the method:
ALA was injected into the bladder or administered orally similarly to Example 1 to bladder cancer patients who had been grouped according to the disease stages based on the intramural invasion depth of the primary tumor: 6 cases of pTis (intraepithelial cancer), 27 cases of pTa (without invasion), 9 cases of pT1 (with invasion to submucosal connective tissue), 6 cases of pT2 (with muscle invasion), 2 cases of pT3 (with invasion to pericystic adipose tissue) (50 cases for total number of patients). […] This confirmed that oral administration is effective in a diagnosis method for bladder cancer at every disease stage.

In the case of `Cl.NCC(=O)CCC(=O)O` [ALA, 5-aminolevulinic acid hydrochloride], the “Fluorescence intensity (relative intensity) by VLD-M1” value was 20153 in the assay on bladder cancer [1] (bladder instillation of ALA (1.5 g ALA-HCl in 50 mL 8.4% NaHCO3)) and 48623 in the assay with bladder cancer [1] (oral intake of ALA (20 mg/kg, 4 hours before operation)). Also, the “Identification of the site of bladder cancer by diagnostic imaging (FIGS. 1 and 2)” value in the assay with bladder cancer [1] (oral intake versus bladder instillation, irradiation at 380-440 nm, red light part observed) was “more remarkably identified in the case of oral intake than in the case of bladder instillation”. In addition, the “Fluorescence, oral administration versus injection into the bladder (FIGS. 3-6)” value in the assay with bladder cancer [2] is given as “fluorescence was more intensive when ALA was orally administered than when injected into the bladder”.
